Results: US4684639A, “Antibacterial penicillins and cephalosporins” (Beecham Group, priority 1983, dated 1987)
Structures can show the parent of a compound that is named as a salt.

Tested on: Klebsiella aerogenes A
Experiment: MIC against Klebsiella aerogenes A
Type: cell-based
Conditions: not given
Excerpt: (§1) The antibiotic compounds of the present invention are active against a wide range of gram negative and gram positive organisms including E. coli such as, for example ESS, JT4, JT425 and NCTC 10418; Pseudomonas Spp. such as Ps.aeruginosa for example 10622 and Dalgleish; Serratia marcescens US32; Klebsiella aerogenes A; Enterobacter cloacae N1; P.mirabilis such as, for example C977 and 889; P.morganii, P.rettgeri; B.subtilis; Staph. aureus such as, for example Oxford and Russell; N.catarrhalis 1502; Strep faecalis I; β-Haemolytic Strep CN10. The MIC data included in the following examples is representative of the activity of the compounds of the present invention.

Compound	MIC [µg/mL]
CCN1CCN(C(=O)NC(C(=O)N[C@@H]2C(=O)N3[C@@H]2SC(C)(C)[C@@H]3C(=O)O)c2cc(OC(C)=O)c(OC(C)=O)cc2F)C(=O)C1=O (stereo partly drawn) [Example 7, Sodium 6,β-[D,L-2-(4,5-diacetoxy-2-fluorophenyl)-2-(2,3-dioxo-4-ethylpiperazin-1-ylcarbonylamino)acetamido]penicillanate]	0.5
CCN1CCN(C(=O)NC(C(=O)N[C@@H]2C(=O)N3[C@@H]2SC(C)(C)[C@@H]3C(=O)O)c2cc(OC(C)=O)c(OC(C)=O)cc2Br)C(=O)C1=O (stereo partly drawn) [Example 10, Sodium 6,β-[D,L-2-(2-bromo-4,5-diacetoxyphenyl)-2-(2,3-dioxo-4-ethylpiperazin-1-ylcarbonylamino)acetamido]penicillanate]	1
CCN1CCN(C(=O)NC(C(=O)N[C@@H]2C(=O)N3[C@@H](C(=O)O)CS[C@H]23)c2cc(OC(C)=O)c(OC(C)=O)cc2Cl)C(=O)C1=O (stereo partly drawn) [Example 2, Sodium 6,β[D,L-2-(2-chloro-4,5-diacetoxyphenyl)-2-(2,3-dioxo-4-ethylpiperazin-1-ylcarbonylamino)acetamido]bisnorpeniclllanate]	< 0.06
CCN1CCN(C(=O)NC(C(=O)N[C@@H]2C(=O)N3[C@@H]2SC(C)(C)[C@@H]3C(=O)O)c2cc(O)c(O)cc2Cl)C(=O)C1=O (stereo partly drawn) [Example 1, Sodium 6,β-[D,L-2-(2-chloro-4,5-dihydroxyphenyl)-2-(2,3-dioxo-4-ethylpiperazin-1-ylcarbonylamino)acetamido penicillanate]	< 0.06
CCN1CCN(C(=O)N[C@@H](C(=O)N[C@@H]2C(=O)N3[C@@H]2SC(C)(C)[C@@H]3C(=O)O)c2cc(OC(C)=O)c(OC(C)=O)cc2Cl)C(=O)C1=O [Example 9, Sodium 6,β-[D-2-(2-chloro-4,5-diacetoxyphenyl)-2-(2,3-dioxo-4-ethylpiperazin-1-ylcarbonylamino)acetamido]penicillanate]	0.25
CCN1CCN(C(=O)N[C@@H](C(=O)N[C@@H]2C(=O)N3[C@@H]2SC(C)(C)[C@@H]3C(=O)O)c2cc(O)c(O)cc2F)C(=O)C1=O [Example 11, Sodium 6,β-[D-2-(4,5-dihydroxy-2-fluorophenyl)-2-(2,3-dioxo-4-ethylpiperazin-1-ylcarbonylamino)acetamido]penicillanate]	1

Tested on: Proteus mirabilis 889
Experiment: MIC against Proteus mirabilis 889
Type: cell-based
Conditions: not given
Excerpt: as §1

Compound	MIC [µg/mL]
CCN1CCN(C(=O)N[C@@H](C(=O)N[C@]2(NC=O)C(=O)N3[C@@H](C(=O)O)C(C)(C)S[C@@H]32)c2cc(OC(C)=O)c(OC(C)=O)cc2F)C(=O)C1=O [Example 8, Sodium 6,β-[D-2-(4,5-diacetoxy-2-fluorophenyl)-2-(2,3-dioxo-4-ethylpiperazin-1-ylcarbonylamino)acetamido]-6,α-formamidopenicillanate]	< 0.06
CCN1CCN(C(=O)N[C@@H](C(=O)N[C@]2(NC=O)C(=O)N3C(C(=O)O)=C(CSc4nnnn4C)CS[C@@H]32)c2cc(OC(C)=O)c(OC(C)=O)cc2Cl)C(=O)C1=O [Example 15, 7β-[D-2-(2-Chloro-4,5-diacetoxyphenyl)-2-[(4-ethyl-2,3-dioxopiperazin-1-yl)carbonylamino]acetamido]-7α-formamido-3-[(1-methyl-1H-tetrazol-5-yl)thiomethyl]ceph-3-em-4-carboxylic acid, sodium salt]	0.06
CCN1CCN(C(=O)NC(C(=O)N[C@]2(OC)C(=O)N3[C@@H](C(=O)O)C(C)(C)S[C@@H]32)c2cc(OC(C)=O)c(OC(C)=O)cc2Cl)C(=O)C1=O (stereo partly drawn) [Example 4, Sodium 6,β-[D,L-2-(2-chloro-4,5-diacetoxyphenyl)-2-(2,3-dioxo-4-ethylpiperazin-1-ylcarbonylamino)acetamido]-6,α-methoxypenicillanate]	4
CCN1CCN(C(=O)N[C@@H](C(=O)N[C@]2(NC=O)C(=O)N3C(C(=O)O)=C(COC(C)=O)CS[C@@H]32)c2cc(OC(C)=O)c(OC(C)=O)cc2Cl)C(=O)C1=O [Example 14, 7β-[D-2-(2-chloro-4,5-diacetoxyphenyl)-2-[(4-ethyl-2,3-dioxopiperazin-1-yl)carbonylamino]acetamido]-7α-formamidocephalosporanate, sodium salt]	< 0.06
CCN1CCN(C(=O)N[C@@H](C(=O)N[C@]2(NC=O)C(=O)N3[C@@H](C(=O)O)C(C)(C)S[C@@H]32)c2cc(O)c(O)cc2F)C(=O)C1=O [Example 16, Sodium 6,β-[D-2-(4,5-dihydroxy-2-fluorophenyl)-2-(2,3-dioxo-4-ethylpiperazin-1-ylcarbonylamino)acetamido]-6,α-formamidopenicillanate]	0.25
CCN1CCN(C(=O)N[C@@H](C(=O)N[C@]2(NC=O)C(=O)N3[C@@H](C(=O)O)C(C)(C)S[C@@H]32)c2cc(OC(C)=O)c(OC(C)=O)cc2Cl)C(=O)C1=O [Example 6]	< 0.06
CCN1CCN(C(=O)NC(C(=O)N[C@]2(NC=O)C(=O)N3[C@@H](C(=O)O)C(C)(C)S[C@@H]32)c2cc(OC(C)=O)c(OC(C)=O)cc2Cl)C(=O)C1=O (stereo partly drawn) [Example 5, Sodium 6,β-[D,L-2-(2-chloro-4,5-diacetoxyphenyl)-2-(2,3-dioxo-4-ethylpiperazin-1-ylcarbonylamino)acetamido]-6,α-formamidopenicillanate]	< 0.06

Tested on: P. mirabilis 899
Experiment: MIC against P. mirabilis 899
Type: cell-based
Conditions: Proteus mirabilis
Excerpt: as §1

Compound	MIC [µg/mL]
CCN1CCN(C(=O)N[C@@H](C(=O)N[C@]2(NC=O)C(=O)N3C(C(=O)O)=C(COC(C)=O)CS[C@@H]32)c2cc(OC(C)=O)c(OC(C)=O)cc2Br)C(=O)C1=O [Example 13, 7β[D-2-(2-Bromo-4,5-diacetoxyphenyl)-2-[(4-ethyl-2,3-dioxopiperazin-1-yl)carbonylamino]acetamido]-7α-formamidocephalosporanate, sodium salt]	0.25
CCN1CCN(C(=O)N[C@@H](C(=O)N[C@]2(NC=O)C(=O)N3C(C(=O)O)=C(COC(C)=O)CS[C@@H]32)c2cc(OC(C)=O)c(OC(C)=O)cc2F)C(=O)C1=O [Example 17, 7β[D-2-(4,5-Diacetoxy-2-fluorophenyl)-2-[(4-ethyl-2,3-dioxopiperazin-1-yl)carbonylamino]acetamido]-7α-formamidocephalosporanate, sodium salt]	0.5
